This is an account of results in PMC5380659, “Unique charge-dependent constraint on collagen recognition by integrin α10β1” (Matrix Biology, 2017).

One experiment has as its system C2C12-α1β1 cells. The experiment can be described thus: xCELLigence real-time adhesion of C2C12-α1β1 cells. It is filed as cell-based, mouse. As to conditions: up to 1 h, compared to GFOGER, Fig. 6A.
In a further experiment the test system is α2-Q215R I domain. The experiment can be described thus: SPBA of α2-Q215R mutant I domain. In kind it is binding, human. Particulars: Gln215 replaced with Arg, Fig. 8E. The source says:
(§1) To test this hypothesis, we replaced the corresponding Q214 and Q215 in α1 and α2 I domains, respectively, with R, as in α10, and we replaced the R215 in the α10 I domain with Q, as in α1 and α2.
(§2) Fig. 8 Arginine substitution of I domain surface reduces binding to Toolkit peptide III-4. Wild type I domain from α1, α2 and α10 were allowed to adhere to Toolkit peptide III-4 that contains GROGER, as described in Fig. 1, and binding is shown in A, B and C, respectively. In D and E, the natural glutamine residues of α1, Q214, and of α2, Q215, was replaced with arginine. In F, the natural arginine, R215, of α10 was replaced with glutamine.
(§3) pGEX-2T-α1, α2 and α10 I were used to generate the Q to R or R to Q mutations using QuikChange PCR kit from Stratagene (200518).
To express α2 wild type and mutant I domains, a 100-ml overnight culture of transformants (Origami strain) was used to inoculate 1 L of Luria broth containing 100 μg/ml ampicillin, 15 μg/ml Kanamycin and 12.5 μg/ml Tetracyclin. The culture was grown for 2 h at 37 °C and then induced at room temperature for 4 h with isopropyl β-D-thiogalactopyranoside (0.1 mM, Melford Laboratories, UK, #MB1008). […]
(§4) I domain adhesion was determined colorimetrically, as described, here termed solid phase binding assay (SPBA). […]

Another experiment has as its system C2C12-α10β1 cells. The experiment can be described thus: xCELLigence real-time adhesion of C2C12-α10β1 cells. As to conditions: up to 1 h, compared with GPP10 negative control, Fig. 6C. It is filed as cell-based, mouse. On the procedure: Fig. 3 Binding of α10β1-transfected C2C12 cells to collagens and selected Toolkit peptides. Peptides or collagens were coated on ePlates as described, then cells were added in the presence of 2 mM Mg^2 + or EDTA, and Cell Index value was collected over 1 h. […] B: time courses are shown of adhesion to selected Toolkit peptides or GPP-10.
To quantitate C2C12-α10β1 binding to collagen peptides, we used the impedance-based xCELLigence system (Acea) that allows label-free, dynamic monitoring of cell adhesion in real-time. The assay system expresses the adhesion-dependent rise in well impedance in units of cell index (CI), defined as (Rn − Rb) / 15; where Rn is the electrical impedance of each cell-containing well and Rb is the background impedance of the well with medium alone
Briefly, C2C12 cells were seeded at 2.5 × 10^4 cells/well in an E-plate (Roche Applied Science) pre-coated with peptides as for SPBA, and CI was measured for up to 2 h.

For the next experiment, the system named is C2C12-α11β1 cells. The experiment can be described thus: xCELLigence real-time adhesion of C2C12-α11β1 cells. Particulars: up to 1 h, compared to GFOGER, Fig. 6D. In kind it is cell-based, mouse.
Experiment [1] deals with human recombinant GST-α10-R215Q I-domain. Briefly: SPBA of α10-R215Q mutant I domain. In kind it is binding. As to conditions: 2 mM MgCl2, relative to wild type α10 I domain, Fig. 8F, Fig. 9.
Description: The I domain was first applied to the collagen II and III Toolkits in the presence or absence of Mg^2 +, detected using anti-GST as before, and data are shown in Fig. 9A and B. α10-R215Q I domain binding was Mg^2 +-dependent, reproducing the wild type Toolkit II data shown in Fig. 1A.
as §3
To express α2 wild type and mutant I domains, a 100-ml overnight culture of transformants (Origami strain) was used to inoculate 1 L of Luria broth containing 100 μg/ml ampicillin, 15 μg/ml Kanamycin and 12.5 μg/ml Tetracyclin. The culture was grown for 2 h at 37 °C and then induced at room temperature for 4 h with isopropyl β-D-thiogalactopyranoside (0.1 mM, Melford Laboratories, UK, #MB1008). Cells were harvested by centrifugation at 4500g for 20 min, and pellets for GST-fusion were resuspended in 10 ml Dulbecco's phosphate-buffered saline, containing 1 tablet of protease inhibitor cocktail (Roche) and 5 mg of lysozyme (Fluka). Suspensions were sonicated and Triton X-100 was added to 1% (v/v). Suspensions were mixed on a roller for 15 min at room temperature, then centrifuged at 18,000 × g for 20 min, and supernatants were pooled. […]
as §4

The subject of another experiment is C2C12-α2β1 cells. Briefly: xCELLigence real-time adhesion of C2C12-α2β1 cells. It is filed as cell-based, mouse. As to conditions: up to 1 h, compared to GFOGER, Fig. 6B.
Another experiment has as its system α1-Q214R I domain. Briefly: SPBA of α1-Q214R mutant I domain. It is filed as binding, human. As to conditions: Gln214 replaced with Arg, Fig. 8D.
Description: as §1, §2, §3
I domain adhesion was determined colorimetrically, as described, here termed solid phase binding assay (SPBA). Peptides were coated at 10 μg/ml for 1 h at 22 °C on Immulon-2 HB 96-well plates (Thermo Life Sciences, Basingstoke, UK), and blocked for 1 h with 200 μl of TBS containing 50 mg/ml bovine serum albumin. Wells were washed four times with 200 μl of the adhesion buffer (TBS with 1 mg/ml bovine serum albumin) before adding 100 μl of adhesion buffer containing 10 μg/ml of recombinant GST I domains in the presence of either 2 mM MgCl2 or EDTA for 1 h at room temperature. […]

Entries after “also recorded” stand apart in the source; their conditions may differ.

As for “GROGER [short triple-helical peptide containing GROGER]”, the “Adhesion of C2C12-α1β1 cells to short THP (time course)” value in the experiment on C2C12-α1β1 cells is given as “bound quite well”. Also, in the experiment with α2-Q215R I domain, the “Binding of α2-Q215R I domain” value is recorded as “impaired their binding; also recorded: failed to bind; also recorded: collapse of binding”. Further, in the experiment with C2C12-α10β1 cells, the “Cell adhesion to short THPs (time course)” value is “poor binding; also recorded: of comparable level to the GPP10 negative control peptide”. For the same substance, in the experiment on C2C12-α11β1 cells, the “Adhesion of C2C12-α11β1 cells to short THP (time course)” value is recorded as “bound quite well”. Further, in experiment [1], the “Binding of α10-R215Q I domain” value was “restored binding; also recorded: better binding”. Besides, the “Adhesion of C2C12-α2β1 cells to short THP (time course)” value in the experiment on C2C12-α2β1 cells was “bound quite well”. The “Binding of α1-Q214R I domain” value in the experiment on α1-Q214R I domain is “impaired their binding; also recorded: failed to bind; also recorded: collapse of binding”.
